Assay results reported in publication PMC9428149, “Tackling recalcitrant Pseudomonas aeruginosa infections in critical illness via anti-virulence monotherapy” (Nature Communications, 2022).
≈ marks a conversion by molar mass, not a printed value. Where “and” joins values, the source holds several entries; their conditions need not be identical. Identical values can stand only once. Like-named read-outs stand apart in the source and are kept apart here.

How the values were obtained:
[1] = biological target: MvfR binding to the pqsA promoter (Pseudomonas aeruginosa, UniProt Q9I4X0); format: cell-based; conditions: D88 −, PQS +; Figure 5c; replicates
Sequence of MvfR binding to the pqsA promoter (Q9I4X0 whole entry, looked up): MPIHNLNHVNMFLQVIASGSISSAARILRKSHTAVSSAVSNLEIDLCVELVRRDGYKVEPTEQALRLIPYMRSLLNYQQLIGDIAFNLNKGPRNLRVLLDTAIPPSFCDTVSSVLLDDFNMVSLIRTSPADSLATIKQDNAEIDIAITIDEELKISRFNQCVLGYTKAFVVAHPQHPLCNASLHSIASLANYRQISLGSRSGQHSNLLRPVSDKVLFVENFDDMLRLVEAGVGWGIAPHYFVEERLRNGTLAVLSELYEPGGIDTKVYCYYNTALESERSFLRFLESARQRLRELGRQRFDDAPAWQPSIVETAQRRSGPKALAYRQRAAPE

[2] = system: pqsA promoter (PA14 PpqsA-GFPASV); experiment: pqsA-GFP reporter expression; format: cell-based, Pseudomonas aeruginosa; conditions: Pseudomonas aeruginosa; for activity at 50 µM: PA14, read-out: % Production pqsA-GFP
Experimental: The expression levels of pqsA, which is representative of the pqsABCDE operon transcription, were monitored in the presence of the MvfR inhibitors using PA14 cells containing the PpqsA-GFPASV, a reporter construct of the pqsA promoter fused to a short half-life GFP gene in, such that quantitative quenching of fluorescence corresponds to pqsA promoter repression[22],[32],[48]. […] GFP fluorescence levels were measured at λex = 485 nm/λem = 535 nm after 10 seconds of shaking every 15 min up to 12 h. The IC50 of PpqsA-GFP expression levels was performed as above using the same 13 different concentrations (0.0122–50 μM) for each of the 13 compounds tested.

PA14 AT/P cells = experiment: AT/P cells formation assay in PA14; format: cell-based, Pseudomonas aeruginosa; conditions: for inhibition at 10 µM: Pseudomonas aeruginosa, PA14, 24 h, read-out: inhibition of AT/P cells formation
PA14 biofilm = experiment: Biofilm formation in 96-well plates, PA14; format: cell-based, Pseudomonas aeruginosa; conditions: PA14, 10 µM, 24 h
[3] = system: mvfR mutant constitutively expressing the pqsABCDE operon; format: cell-based; conditions: Pseudomonas aeruginosa, control about 100, single replicates (Figure 4a)
[4] = system: pyocyanin production in PA14; experiment: Pyocyanin production assay; conditions: Pseudomonas aeruginosa; for activity at 50 µM: PA14, 18 h, read-out: % Production Pyocyanin; for IC50: PA14, read-out: IC50 pyocyanin production
[5] = system: PA14 isogenic mutant ΔmvfR AT/P cells; experiment: AT/P cell formation in ΔmvfR mutant (off-target); conditions: Pseudomonas aeruginosa, PA14, 24 h, read-out: AT/P cell formation, ΔmvfR + compound; PA14 about 100; single replicates (Figure 4b)
Experimental: Cells were grown in the presence of 10 μg mL^−1 meropenem, with or without 10 µM of the compounds for 24 h. Values were normalized to cells grown for 4 h in the absence of antibiotics and compounds. The ∆mvfR cells grown with antibiotics and vehicles were considered control, and the percentage values were calculated compared to control. c Biofilm formation of mutant ∆mvfR cells with or without compound. […] The number of biological replicates for each compound and strain is depicted in the graph. The error bars denote ±SEM.
The AT/P cell formation assay was performed according to the method previously described in Starkey et al., 2014 (persister cell assay). The over-day culture was incubated at 37 °C with shaking at 200 rpm until the culture OD600nm was 3.0. The culture was then diluted at 1:100 and grown in the same conditions for 4 h. After 4 h, 200 µL were collected, and serial dilutions were plated on LB agar plates for CFU quantification (as normalizers). The remainder of the culture was treated with meropenem to a final concentration of 100 × MIC (Minimum Inhibitory Concentration; 10 mg L^−1) and compounds at a final concentration of 10 µM. After 24 h, culture aliquots were 10-fold serially diluted in LB broth and plated on LB agar for CFU quantification. The AT/P fraction was determined as the normalizers (pre-antibiotic) ratio divided by the AT/P fraction (24 h post-antibiotic)[22].

[6] = Solubility in iPBS pH 7.4 by HPLC; format: physicochemical; conditions: kinetic from dmso stock
Experimental: Solubility of the 10 mM compounds dissolved in DMSO was tested in the isotonic phosphate buffer (iPBS) at pH 7.4 using High-Performance Liquid Chromatography (HPLC). For the preparation of iPBS phosphate-buffered saline tab (Sigma-Aldrich 08057-12Tab-F) is dissolved in 500 mL of deionized water and the final composition of the solution contains 10 mM PBS, 2.7 mM KCl, 140 mM NaCl and 0.05% Tween. A total 10 µL of the compound from a 10 mM stock solution in DMSO was added to the vial, and 190 µL of buffer was added to each vial and mixed with shaking at room temperature for 4 h. Thereafter the samples were filtered, and 160 µL of the sample was mixed with 40 µL of DMSO for the final injection. Ibuprofen (high solubility) and Progesterone (low Solubility) were used as standard compounds. Ammonium Acetate aqueous solution (50 mM, pH 7.4) and the acetonitrile were used as mobile phases A and B, respectively. The measurement of concentration was achieved by comparing of UV absorbance of the sample solution and the known standard solution following an HPLC separation using a generic fast gradient method. The solubility of each compound is expressed by the ratio of compound amount in the sample test solution to the amount of compound in the standard solution.

ΔmvfR biofilm = experiment: Biofilm formation of ΔmvfR mutant (off-target); conditions: Pseudomonas aeruginosa, PA14, 24 h, read-out: Biofilm formation, ΔmvfR + compound; PA14 about 100; single replicates (Figure 4c)
Experimental: Biofilm was grown in the 96-well microtiter plate at 37 °C for 24 h containing M63 minimal media in the presence of 10 µM of the compounds or vehicle. The biofilm grown with the vehicle was considered as a control. The percentage value was calculated in comparison to the PA14 control. a–c Data represent at least n = 3, each dot on the graph represents one biological replicate. The number of biological replicates for each compound and strain is depicted in the graph. The error bars denote ±SEM.
The overnight grown starter culture was diluted 1:1000 in 5 mL LB media in a glass tube and was incubated at 37 °C and 200 rpm in an incubator shaker until the culture reached an OD600nm 3.0. The culture was then diluted at 1:100 in M63 minimal media supplemented with 0.2% glucose, 0.5% Casamino Acids, and 1 mM MgSO4. Initiation of the Biofilm formation was performed in the 96 well plates; 200 µL of diluted culture was added in the wells with (10 µM) or without compounds. The cultures were allowed to grow at 37 °C in static conditions for 24 hours. Thereafter, planktonic culture was removed from the wells, and wells were washed three times with distilled water (DW). Biofilm was stained with 0.1% crystal violet and incubated for 15 min at room temperature (RT). Access dye was removed from the wells and washed off three times with DW, and 200 µL ethanol: acetone (80:20) was added to the wells. The plate was incubated for 30 min at RT, and the OD was measured by spectrophotometry at 570 nm in the infinite F200 plate reader using the Magellan software (Tecan, Switzerland). Percent biofilm formation was calculated in comparison to PA14 culture that was grown in the absence of compounds.

[7] = system: 16 MDR P. aeruginosa clinical isolates; experiment: Pyocyanin production in MDR clinical isolates; conditions: Pseudomonas aeruginosa, 18 h, Control about 100, replicates
Experimental: The over-day culture was grown to OD600nm 1.5., diluted again at 1:10,000 in 5 mL LB and incubated with 10 μM of the test compound or the vehicle control for 18 hours at 37 °C and 200 rpm in an incubator shaker. After 18 h, 1 mL of culture was centrifuged for 2 min at 20.000 x g. The supernatant was transferred to a new tube, 200 μL of this were loaded in a flat-bottom 96-well plate, and the pyocyanin levels were quantified by measuring at OD690nm in the infinite F200 plate reader using the Magellan software (Tecan, Switzerland). The same procedure was also followed for the pyocyanin production assessment for all the P. aeruginosa clinical isolates assessed in this study. The percent of pyocyanin was calculated compared to the PA14 culture grown in the absence of compounds.
Pyocyanin production was measured in 16 P.
aeruginosa clinical isolates 18hr post-growth in the presence or absence of 10 µM of each NAM
compound. The percent of pyocyanin production was calculated by comparing the same strain grown
in the presence of the vehicle control. b.

[8] = system: MvfR-regulated small molecules in PA14; experiment: Production of HAQs, 2-AA, DHQ and AA in PA14 cultures (LC-MS); conditions: Pseudomonas aeruginosa
[9] = read-out: DHQ, ΔmvfR-pqsABCD strain
[10] = read-out: HQNO, ΔmvfR-pqsABCD strain
[11] = read-out: PQS, ΔmvfR-pqsABCD strain
[12] = read-out: Pyocyanin production relative to Control, clinical isolate LGR-4325
[13] = read-out: Pyocyanin production relative to Control, clinical isolate LGR-4326
[14] = read-out: Pyocyanin production relative to Control, clinical isolate LGR-4327
[15] = read-out: Pyocyanin production relative to Control, clinical isolate LGR-4328
[16] = read-out: Pyocyanin production relative to Control, clinical isolate LGR-4330
[17] = read-out: Pyocyanin production relative to Control, clinical isolate LGR-4331 (first section, r117)
[18] = read-out: Pyocyanin production relative to Control, clinical isolate LGR-4331 (second section, r140)
[19] = read-out: Pyocyanin production relative to Control, clinical isolate LGR-4333
[20] = read-out: Pyocyanin production relative to Control, clinical isolate LGR-4343
[21] = read-out: Pyocyanin production relative to Control, clinical isolate LGR-4344
[22] = read-out: Pyocyanin production relative to Control, clinical isolate LGR-4348
[23] = read-out: Pyocyanin production relative to Control, clinical isolate LGR-4356
[24] = read-out: Pyocyanin production relative to Control, clinical isolate LGR-4362
[25] = read-out: Pyocyanin production relative to Control, clinical isolate LGR-4363
[26] = read-out: Pyocyanin production relative to Control, clinical isolate LGR-4364 (first section, r326)
[27] = read-out: Pyocyanin production relative to Control, clinical isolate LGR-4364 (second section, r349)

Row | SMILES | activity at 50 µM [2] [%] | inhibition at 10 µM (PA14 AT/P cells) [%] | activity at 50 µM [3, 9] [%] | activity at 50 µM [3, 10] [%] | activity at 50 µM [3, 11] [%] | activity at 50 µM [4] [%] | IC50 [4] [µM] | activity at 10 µM [5] [%] | activity at 10 µM (ΔmvfR biofilm) [%] | activity at 10 µM [7, 12] [%] | activity at 10 µM [7, 13] [%] | activity at 10 µM [7, 14] [%] | activity at 10 µM [7, 15] [%] | activity at 10 µM [7, 16] [%] | activity at 10 µM [7, 17] [%] | activity at 10 µM [7, 18] [%] | activity at 10 µM [7, 19] [%] | activity at 10 µM [7, 20] [%] | activity at 10 µM [7, 21] [%] | activity at 10 µM [7, 22] [%] | other results
1 | CCCCCCCc1nc2ccccc2c(O)c1O [PQS] |  |  |  |  |  |  |  |  |  |  |  |  |  |  |  |  |  |  |  |  | MvfR binding to the pqsA promoter (ChIP-qPCR) [1]: 12.2267 and 11.783 and 5.7525
2 | O=C(Nc1ccc(Oc2ccccc2)cc1)C(F)C(=O)Nc1ccc(C(F)(F)F)cc1 (stereo not drawn) [D100] | 2 | ≥ 51 | 92.5 | 98.7 | 81.3 | 7 | 0.38 | 42.2 | 39.3 | 13.3 | 19.1 | 21.7 | 31.1 | 31.1 | 23.5 | 12 | 15.4 | 13.4 | 16.3 | 26.1 | AT/P cells formation, percentage of control (single replicates) (PA14 AT/P cells; PA14, 10 μg mL^−1 meropenem, 10 µM compound, 24 h, control PA14 + vehicle): 18.86% and 47.86% and 24.02%; biofilm formation inhibition rate (PA14 biofilm): highest inhibition; activity at 50 µM ([3]; read-out: 2-AA, ΔmvfR-pqsABCD strain): 97.5%; activity at 50 µM ([3]; read-out: HHQ, ΔmvfR-pqsABCD strain): 104%; solubility at 4 h ([6]; isotonic phosphate buffer (iPBS), aqueous with cosolvent or surfactant or cyclodextrin, iPBS pH 7.4, HPLC, read-out: Solubility (M) in PBS): 5e-06 M (≈ 2.16 µg/mL); activity at 10 µM [7, 23]: 16.4%; activity at 10 µM [7, 24]: 33%; activity at 10 µM [7, 25]: 10.2%; activity at 10 µM [7, 26]: 13.3%; activity at 10 µM [7, 27]: 10.6%
3 | N#Cc1ccc(NC(=O)CC(=O)Nc2ccc(C#N)c(Cl)c2)cc1 [D95] | 6 | ≥ 51 | 95.2 | 97.2 | 100 | 4 | 0.9 | 35.3 | 17.7 | 11.5 | 6.63 | 14.1 | 16.3 | 19.6 | 14.8 | 7.46 | 9.75 | 12.1 | 14.6 | 19.2 | IC50 ([2]; PA14, read-out: IC50 pqsA-GFP expression, PA14, 13 concentrations): 1.09 µM; solubility at 4 h ([6]; pH 7.4, aqueous with cosolvent or surfactant or cyclodextrin): 1.7e-05 M (≈ 5.76 µg/mL); activity at 50 µM ([8]; PA14, read-out: % Production 2-AA): 11%; activity at 50 µM ([8]; PA14, read-out: % Production AA): 774%; activity at 50 µM ([8]; PA14, read-out: % Production DHQ): 13%; activity at 50 µM ([8]; PA14, read-out: % Production HHQ): 5%; activity at 50 µM ([8]; PA14, read-out: % Production HQNO): 30%; activity at 50 µM ([8]; PA14, read-out: % Production PQS): 10%; inhibition at 50 µM ([8]; PA14, read-out: HHQ production inhibition): 89 to 99%; inhibition at 50 µM ([8]; PA14, read-out: HQNO production inhibition): 40 to 92%; inhibition at 50 µM ([8]; PA14, read-out: PQS production inhibition): 76 to 97%; inhibition at 50 µM ([8]; PA14, read-out: inhibition of 2-AA production): 82 to 95%; inhibition at 50 µM ([8]; PA14, read-out: inhibition of DHQ production): 82 to 96%; activity at 10 µM [7, 23]: 7.92%; activity at 10 µM [7, 24]: 30.4%; activity at 10 µM [7, 25]: 9.55%; activity at 10 µM [7, 26]: 8.11%; activity at 10 µM [7, 27]: 13.7%
